In US6525059B1, “Substituted pyrazoles as p38 kinase inhibitors” (G. D. Searle & Company, priority 1998, dated 2003):
Values joined by “and” are separate entries in the source; they are usually repeats but may differ in a detail not shown here. Identical values can stand only once. Counter-ions that a name gives are not always drawn. Like-named read-outs stand apart in the source and are kept apart here.

Experiments:
[1] = biological target: T1, human GST-p38 kinase alpha (Homo sapiens, UniProt Q16539); assay: p38 kinase in vitro assay, second format, phosphorylation of EGFRP with 33P-ATP; format: biochemical; settings: read-out: p38α Kinase Assay IC50
T1 construct: The coding region of the human p38a cDNA was obtained by PCR-amplification from RNA isolated from the human monocyte cell line THP.1; made in house; host or cells: E. coli DH10B
How it was run: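 Activated human GST-p38α (pre-activated with GST-MKK6, 1 h, 30 °C) phosphorylates EGFR 21-mer peptide (200 μM) with 50 μM ATP plus γ-33P-ATP, pH 7.5, 60 min at room temperature. Unreacted ATP removed by AG 1×8 resin; supernatant scintillation-counted.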

TNF-α = assay: Rat assay: LPS-challenged rats, serum TNF-α by ELISA; format: in vivo; settings: Rattus norvegicus, po; for inhibition in vivo at 1 mg/kg / inhibition in vivo at 5 mg/kg / inhibition in vivo at 3 mg/kg: read-out: Rat LPS Assay % Inhibition; for inhibition in vivo at 3 mg/kg: Table 8, dose 3.0 mg/kg
human TNF = assay: TNF inhibition: human whole blood assay; format: cell-based; settings: Homo sapiens, LPS, read-out: TNF Inhibition-Human Whole Blood Assay

T1 sequence (Q16539 whole entry): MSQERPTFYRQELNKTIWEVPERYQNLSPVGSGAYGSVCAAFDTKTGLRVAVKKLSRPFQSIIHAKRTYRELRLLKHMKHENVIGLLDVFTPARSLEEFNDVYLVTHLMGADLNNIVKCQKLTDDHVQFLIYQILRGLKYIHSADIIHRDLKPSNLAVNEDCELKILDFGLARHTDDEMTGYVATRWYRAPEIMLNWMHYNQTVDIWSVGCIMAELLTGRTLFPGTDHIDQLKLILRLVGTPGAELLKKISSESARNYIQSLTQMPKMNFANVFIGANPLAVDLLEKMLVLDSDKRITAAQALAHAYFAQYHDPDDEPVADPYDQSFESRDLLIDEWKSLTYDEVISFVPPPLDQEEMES

SMILES | IC50 ([1]; Table 9, 10% DMSO) | inhibition in vivo at 20 mg/kg (TNF-α; Table 9, dose 20 mg/kg) [%] | IC50 (human TNF; Table 9, human whole blood) [nM] | further results
Fc1ccc(-c2[nH]nc(CN3CCNCC3)c2-c2ccncc2)cc1 [A-314, Step 2, 1-[[5-(4-fluorophenyl)-4-(4-pyridinyl)-1H-pyrazol-3-yl]methyl]-4-piperazine] |  |  |  | IC50 ([1]; Table 8, 10% DMSO): 32 nM; inhibition in vivo at 1 mg/kg (TNF-α; Table 8, dose 1.0 mg/kg): 0%; inhibition in vivo at 5 mg/kg (TNF-α; Table 8, dose 5.0 mg/kg): 53%; inhibition in vivo at 20 mg/kg (TNF-α; Table 8, dose 20.0 mg/kg): 85%; IC50 (human TNF; Table 8, human whole blood): 470 nM
Clc1ccc(-c2[nH]nc(NC3CCNCC3)c2-c2ccncc2)cc1 [Example A-332, N-[5-(4-chlorophenyl)-4-(4-pyridinyl)-3H-pyrazol-3-yl]-4-piperidineamine, trihydrochloride, monohydrate] |  |  |  | IC50 ([1]; Table 8, 10% DMSO): 15 nM and < 100 nM; inhibition in vivo at 1 mg/kg (TNF-α; Table 8, dose 1.0 mg/kg): 33%; inhibition in vivo at 3 mg/kg (TNF-α): 26%; inhibition in vivo at 5 mg/kg (TNF-α; Table 8, dose 5.0 mg/kg): 25%; inhibition in vivo at 10 mg/kg (TNF-α; Table 8, dose 10.0 mg/kg): -85%; IC50 (human TNF; Table 8, human whole blood): 450 nM
CN(C)C1CCN(c2[nH]nc(-c3ccc(F)cc3)c2-c2ccncc2)CC1 [Example A-360, 1-[5-(4-fluorophenyl)-4-(4-pyridinyl)-1H-pyrazol-3-yl]-N,N-dimethyl-4-piperidinamine, trihydrochloride] | 60 nM | 95 | 500 | inhibition in vivo at 1 mg/kg (TNF-α; Table 9, dose 1 mg/kg): 0%; inhibition in vivo at 5 mg/kg (TNF-α; Table 9, dose 5 mg/kg): 14%
OCC(Nc1cc(-c2c[nH]nc2-c2ccc(F)cc2)ccn1)c1ccccc1 (stereo not drawn) [Example A-376, (βR)-β-[[4-[3-(4-fluorophenyl)-1H-pyrazol-4-yl]-2-pyridinyl]amino]benzene ethanol] | 32 nM | 24 | 1000 | 
CC(C)C[C@@H](CO)Nc1cc(-c2c[nH]nc2-c2ccc(F)cc2)ccn1 [Example A-354, (2S)-2-[[4-[3-(4-fluorophenyl)-1H-pyrazol-4-yl]-2-pyridinyl]amino]-4-methyl-1-pentanol] | 220 nM | 0 | 25000 | 
CCN(CC)CCNc1cc(-c2c[nH]nc2-c2ccc(F)cc2)ccn1 [Example A-374, N,N-diethyl-N′-[4-[3-(4-fluorophenyl)-1H-pyrazol-4-yl]-2-pyridinyl]-1,2-ethanediamine] | 380 nM | 88 | 310 | inhibition in vivo at 1 mg/kg (TNF-α; Table 9, dose 1 mg/kg): 3%; inhibition in vivo at 5 mg/kg (TNF-α; Table 9, dose 5 mg/kg): 0%
Fc1ccc(-c2n[nH]cc2-c2ccnc(NCC3CCNCC3)c2)cc1 [Example A-351, 4-[3-(4-fluorophenyl)-1H-pyrazol-4-yl]-N-(4-piperidinylmethyl)-2-pyridinamine] | 270 nM | 0 | 490 | 
Fc1ccc(-c2n[nH]c(CC3CCNCC3)c2-c2ccncc2)cc1 [Example A-315, 4-[3-(4-fluorophenyl)-5-(4-piperidinylmethyl)-1H-pyrazol-4-yl]pyridine] |  |  |  | IC50 ([1]; Table 8, 10% DMSO): 49 nM; IC50 (human TNF; Table 8, human whole blood): 1750 nM
CC(C)C(CO)Nc1cc(-c2c[nH]nc2-c2ccc(F)cc2)ccn1 (centres unmarked) [Example A-355, 2-[[4-[3-(4-fluorophenyl)-1H-pyrazol-4-yl]-2-pyridinyl]amino]-3-methyl-1-butanol] | 50 nM |  | 95 | inhibition in vivo at 26 mg/kg (TNF-α; Table 9, dose 26 mg/kg): 0%
CCN(CC)C1CCN(c2n[nH]c(-c3ccc(F)cc3)c2-c2ccncc2)CC1 [Example A-388, 1-[5-(4-fluorophenyl)-4-(4-pyridinyl)-1H-pyrazol-3-yl]-N,N-diethyl-4-piperidinamine, trihydrochloride] | 210 nM | 97 | 340 | inhibition in vivo at 5 mg/kg (TNF-α; Table 9, dose 5 mg/kg): 67%
CCN(CC)CC(Nc1cc(-c2c[nH]nc2-c2ccc(F)cc2)ccn1)c1ccccc1 (centres unmarked) [Example A-353, N2,N2-diethyl-N1-[4-[3-(4-fluorophenyl)-1H-pyrazol-4-yl]-2-pyridinyl]-1-phenyl-1,2-ethanediamine] | 37 nM | 49 | 5300 | 
C[C@@H](O)CNc1cc(-c2c[nH]nc2-c2ccc(F)cc2)ccn1 [Example A-368, (2R)-1-[[4-[3-(4-fluorophenyl)-1H-pyrazol-4-yl]-2-pyridinyl]amino]-2-propanol] | 42 nM | 88 | 660 | inhibition in vivo at 1 mg/kg (TNF-α; Table 9, dose 1 mg/kg): 28%; inhibition in vivo at 5 mg/kg (TNF-α; Table 9, dose 5 mg/kg): 41%
Fc1ccc(-c2[nH]nc(NC3CCNCC3)c2-c2ccncc2)cc1 [Example A-339, N-[5-(4-fluorophenyl)-4-(4-pyridinyl)-1H-pyrazol-3-yl]-4-piperidinamine, trihydrochloride] |  |  |  | IC50 ([1]; Table 8, 10% DMSO): 52 nM; IC50 (human TNF; Table 8, human whole blood): 56 nM
OC[C@@H](Nc1cc(-c2c[nH]nc2-c2ccc(F)cc2)ccn1)c1ccccc1 [Example A-362, (βS)-β-[[4-[3-(4-fluorophenyl)-1H-pyrazol-4-yl]-2-pyridinyl]amino]benzene ethanol] | 690 nM | 0 | 5500 | 
CCN(CC)CCCNc1n[nH]c(-c2ccc(F)cc2)c1-c1ccncc1 [Example A-364, N,N-diethyl-N′-[5-(4-fluorophenyl)-4-(4-pyridinyl)-1H-pyrazol-3-yl]-1,3-propanediamine] | 490 nM | 79 | 255 | 
CCOC(=O)N1CCC(Nc2n[nH]c(-c3ccc(F)cc3)c2-c2ccncc2)CC1 [Example A-337, Ethyl 4-[[5-(4-fluorophenyl)-4-(4-pyridinyl)-1H-pyrazol-3-yl]amino]-1-piperidinecarboxylate, monohydrate] |  |  |  | IC50 ([1]; Table 8, 10% DMSO): 1350 nM; IC50 (human TNF; Table 8, human whole blood): > 25000 nM
Clc1ccc(-c2n[nH]c(OC3CCNCC3)c2-c2ccncc2)cc1 [Example A-442] |  |  |  | IC50 ([1]; Table 10, 10% DMSO, @ 1.0 hour): 22 nM; inhibition in vivo at 1 mg/kg (TNF-α; Table 10, dose 1.0 mg/kg): 51%; inhibition in vivo at 5 mg/kg (TNF-α; Table 10, dose 5.0 mg/kg): 56%; inhibition in vivo at 20 mg/kg (TNF-α; Table 10, dose 20.0 mg/kg): 92%; IC50 (human TNF; Table 10, human whole blood): 160 nM
CCN(CC)CCCC(C)Nc1cc(-c2c[nH]nc2-c2ccc(F)cc2)ccn1 (centres unmarked) [Example A-377, N1,N1-diethyl-N4-[4-[3-(4-fluorophenyl)-1H-pyrazol-4-yl]-2-pyridinyl]-1,4-pentanediamine] | 4 nM and 1.9 nM | 84 | 670 | inhibition in vivo at 1 mg/kg (TNF-α; Table 9, dose 1 mg/kg): 32%; inhibition in vivo at 5 mg/kg (TNF-α; Table 9, dose 5 mg/kg): 67%
CCOC(=O)N1CCC(Nc2cc(-c3c[nH]nc3-c3ccc(F)cc3)ccn2)CC1 [Example A-356, ethyl 4-[[4-[3-(4-fluorophenyl)-1H-pyrazol-4-yl]-2-pyridinyl]amino]-1-piperidinecarboxylate] | < 10 nM | 73 | 5300 | 
Fc1ccc(-c2n[nH]c(N3CCSCC3)c2-c2ccncc2)cc1 [Example A-438] |  |  |  | IC50 ([1]; Table 10, 10% DMSO, @ 1.0 hour): 560 nM; inhibition in vivo at 20 mg/kg (TNF-α; Table 10, dose 20.0 mg/kg): 49%; IC50 (human TNF; Table 10, human whole blood): > 25000 nM
C[C@H](O)CNc1cc(-c2c[nH]nc2-c2ccc(F)cc2)ccn1 [Example A-370, (2S)-1-[[4-[3-(4-fluorophenyl)-1H-pyrazol-4-yl]-2-pyridinyl]amino]-2-propanol] | 160 nM | 90 | 1920 | inhibition in vivo at 5 mg/kg (TNF-α; Table 9, dose 5 mg/kg): 46%
C#CCn1nc(N2CCNCC2)c(-c2ccncc2)c1-c1ccc(Cl)cc1 [Example A-318, 1-[5-(4-chlorophenyl)-4-(4-pyridinyl)-1-(2-propynyl)-1H-pyrazol-3-yl]piperazine, trihydrochloride monohydrate] |  |  |  | IC50 ([1]; Table 8, 10% DMSO): 580 nM and 370 nM and 600 nM; inhibition in vivo at 3 mg/kg (TNF-α): 54%; IC50 (human TNF; Table 8, human whole blood): 167 nM
CCN(CC)CCCC(C)Nc1cc(-c2c[nH]nc2-c2ccc(Cl)cc2)ccn1 (centres unmarked) [Example A-369, N4-[4-[3-(4-chlorophenyl)-1H-pyrazol-4-yl]-2-pyridinyl]-N1,N1-diethyl-1,4-pentanediamine] | 19 nM and 11 nM and 2.7 nM | 94 | 840 | inhibition in vivo at 5 mg/kg (TNF-α; Table 9, dose 5 mg/kg): 52%
Clc1ccc(-c2n[nH]c(SCCN3CCCC3)c2-c2ccncc2)cc1 [Example A-460] |  |  |  | IC50 ([1]; Table 10, 10% DMSO, @ 1.0 hour): 1840 nM; IC50 (human TNF; Table 10, human whole blood): 8910 nM
